IC50 data for 15 molecules are collected here from US20240409585A1, “MACROCYCLIC IMMUNOMODULATORS” (priority 2021, published 2024).

SMILES strings stand for the structures. Bridge positions count the residues as written; N and C are the ends. Square brackets hold non-standard residues; d marks the D form. Peptide text beside a SMILES is read from it. * marks the point of attachment. ξ: configuration not given here. Bip(4'-COOH) = N[C@@H](Cc1ccc(-c2ccc(C(=O)O)cc2)cc1)C(=O)O; dPhe(3-CF3) = N[C@H](Cc1cccc(C(F)(F)F)c1)C(=O)O; Phe(4-COOH) = N[C@@H](Cc1ccc(C(=O)O)cc1)C(=O)O; Bip = N[C@@H](Cc1ccc(-c2ccccc2)cc1)C(=O)O; Phe(3-Me) = Cc1cccc(C[C@H](N)C(=O)O)c1; dBta = N[C@H](Cc1csc2ccccc12)C(=O)O; Gly(cPent) = N[C@H](C(=O)O)C1CCCC1; Val(3-OH) = CC(C)(O)[C@H](N)C(=O)O; 4Pal = N[C@@H](Cc1ccncc1)C(=O)O; 2Thi = N[C@@H](Cc1cccs1)C(=O)O; Cha = N[C@@H](CC1CCCCC1)C(=O)O; Cit = NC(=O)NCCC[C@H](N)C(=O)O; Ile(3ξ) = CCC(C)[C@H](N)C(=O)O; Thr(3ξ) = CC(O)[C@H](N)C(=O)O; Carboxymethyl = O=C(O)C*; NMeA = CN[C@@H](C)C(=O)O; Dab = NCC[C@H](N)C(=O)O; Nva = CCC[C@H](N)C(=O)O

What is called IC50 is the point on the concentration scale where inhibition reaches its midpoint.

The target in the assay is T1, PE-labeled human PD-L1-Ig binding to Jurkat cell line over-expressing human PD-1 (Jurkat-PD-1) (Homo sapiens, UniProt Q15116).
T1 construct: expressed in transfected cells; host or cells: Jurkat
T1 sequence (Q15116 25-288): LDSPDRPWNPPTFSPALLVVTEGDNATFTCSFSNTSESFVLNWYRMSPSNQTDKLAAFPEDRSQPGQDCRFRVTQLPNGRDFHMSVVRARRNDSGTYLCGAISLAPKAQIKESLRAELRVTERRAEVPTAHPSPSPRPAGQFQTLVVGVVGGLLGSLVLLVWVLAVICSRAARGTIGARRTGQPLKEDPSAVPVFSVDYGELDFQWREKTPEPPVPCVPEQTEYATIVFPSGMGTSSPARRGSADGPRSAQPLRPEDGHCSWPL
Briefly: Jurkat-PD-1 Cell Binding High-Content Screening Assay (CBA): Method 1. Conditions: Jurkat-hPD-1 cells, PE-labeled PD-L1-Ig 20 nM final; read-out: Jurkat HPDL1 PD1 IC50 (uM) (Method 1).
For the molecule `CC(C)C[C@@H]1NC(=O)[C@H](Cc2c[nH]c3ccccc23)NC(=O)[C@H](CC(=O)O)NC(=O)[C@H](Cc2cccs2)NC(=O)[C@H](Cc2ccccc2)NC(=O)CSC[C@@H](C(=O)N[C@@H](C)C(N)=O)NC(=O)[C@H](CO)NC(=O)[C@H](C(C)C)NC(=O)[C@H](CC(C)C)NC(=O)[C@H](CC(N)=O)NC(=O)[C@@H](C)NC(=O)[C@H](C)N(C)C(=O)[C@H](C(C)C)NC(=O)[C@H](Cc2ccc(-c3ccccc3)cc2)NC1=O` [Compound 1725] ({CH2CO}-F[2Thi]DWL[Bip]V[NMeA][dA]NLVSCA-NH2; thioether N-14), the IC50 is 0.01 µM. As to `CC(C)C[C@@H]1NC(=O)[C@H](CCN)NC(=O)[C@@H](CC(C)C)NC(=O)[C@H](C)N(C)C(=O)CNC(=O)[C@H](Cc2ccc(-c3ccccc3)cc2)NC(=O)[C@H](C(C)C)NC(=O)[C@H](Cc2c[nH]c3ccccc23)NC(=O)[C@H](CC(=O)O)NC(=O)[C@H](Cc2ccc(O)cc2)NC(=O)[C@H](CC(N)=O)NC(=O)CSC[C@@H](C(=O)N[C@@H](C)C(N)=O)NC(=O)[C@H]([C@@H](C)O)NC(=O)[C@H](C(C)C)NC1=O` [Compound 1281] ({CH2CO}-NYDWV[Bip]G[NMeA][dL][Dab]LVTCA-NH2; thioether N-14), the IC50 was found to be 0.33 µM. Take `CC(C)C[C@@H]1NC(=O)[C@H](CCCNC(=N)N)NC(=O)[C@@H](Cc2ccccc2)NC(=O)[C@H](C)N(C)C(=O)[C@H](CCCNC(=N)N)NC(=O)[C@H](Cc2ccc(-c3ccccc3)cc2)NC(=O)[C@H](C(C)C)NC(=O)[C@H](Cc2c[nH]c3ccccc23)NC(=O)[C@H](CC(=O)O)NC(=O)[C@H](Cc2ccc(O)cc2)NC(=O)[C@H](CC(N)=O)NC(=O)CSC[C@@H](C(=O)NCC(N)=O)NC(=O)[C@H](CO)NC(=O)[C@H](C(C)C)NC1=O` [Compound 1032] ({CH2CO}-NYDWV[Bip]R[NMeA][dF]RLVSCG-NH2; thioether N-14): the IC50 amounted to 0.51 µM. Then `Cc1cccc(C[C@@H]2NC(=O)[C@H](CC(=O)O)NC(=O)[C@H](Cc3ccc(OCC(=O)O)cc3)NC(=O)[C@H](Cc3ccncc3)NC(=O)CSC[C@@H](C(=O)N[C@@H](C)C(N)=O)NC(=O)[C@H]([C@@H](C)O)NC(=O)[C@H](C(C)C)NC(=O)[C@H](CC(C)C)NC(=O)[C@H](CCN)NC(=O)[C@@H](CC(C)C)NC(=O)[C@H](C)N(C)C(=O)[C@H](CCCNC(N)=O)NC(=O)[C@H](Cc3ccc(-c4ccccc4)cc3)NC(=O)[C@H](C(C)C)NC2=O)c1` [Compound 1421] ({CH2CO}-[4Pal]Y(Carboxymethyl)D[Phe(3-Me)]V[Bip][Cit][NMeA][dL][Dab]LVTCA-NH2; thioether N-14), with 0.01 µM; and `CC(C)C[C@@H]1NC(=O)[C@H](Cc2c[nH]c3ccccc23)NC(=O)[C@H](CC(=O)O)NC(=O)[C@H](Cc2ccc(OCC(=O)O)cc2)NC(=O)[C@H](Cc2ccc(-c3ccc(C(=O)O)cc3)cc2)NC(=O)CSC[C@@H](C(=O)N[C@@H](CC(N)=O)C(N)=O)NC(=O)[C@H](CO)NC(=O)[C@H](C(C)C)NC(=O)[C@H](CC(C)C)NC(=O)[C@H](CCN)NC(=O)[C@@H](CC(C)C)NC(=O)[C@H](C)N(C)C(=O)[C@H](Cc2cnc[nH]2)NC(=O)[C@H](Cc2ccc(-c3ccccc3)cc2)NC1=O` [Compound 2097] ({CH2CO}-[Bip(4'-COOH)]Y(Carboxymethyl)DWL[Bip]H[NMeA][dL][Dab]LVSCN-NH2; thioether N-14), with 0.03 µM. In the case of `CC(C)C[C@@H]1NC(=O)[C@H](CCCNC(=N)N)NC(=O)[C@@H](Cc2csc3ccccc23)NC(=O)[C@H](C)N(C)C(=O)[C@H](CCCNC(=N)N)NC(=O)[C@H](Cc2ccc(-c3ccccc3)cc2)NC(=O)[C@H](C(C)C)NC(=O)[C@H](Cc2c[nH]c3ccccc23)NC(=O)[C@H](CC(=O)O)NC(=O)[C@H](Cc2ccc(O)cc2)NC(=O)[C@H](Cc2ccccc2)NC(=O)CSC[C@@H](C(=O)N[C@@H](C)C(N)=O)NC(=O)[C@H]([C@@H](C)O)NC(=O)[C@H](C(C)C)NC1=O` [Compound 1180] ({CH2CO}-FYDWV[Bip]R[NMeA][dBta]RLVTCA-NH2; thioether N-14) it was 0.51 µM; in that of `CC(C)C[C@@H]1NC(=O)[C@H](Cc2c[nH]c3ccccc23)NC(=O)[C@H](CC(=O)O)NC(=O)[C@H](Cc2ccc(O)cc2)NC(=O)[C@H](Cc2ccccc2)NC(=O)CSC[C@@H](C(=O)NCC(N)=O)NC(=O)[C@H](CO)NC(=O)[C@H](C(C)C)NC(=O)[C@H](CC(C)C)NC(=O)[C@H](CC(N)=O)NC(=O)[C@@H](CC(C)C)NC(=O)[C@H](C)N(C)C(=O)[C@H](CCCNC(N)=O)NC(=O)[C@H](Cc2ccc(-c3ccccc3)cc2)NC1=O` [Compound 1509] ({CH2CO}-FYDWL[Bip][Cit][NMeA][dL]NLVSCG-NH2; thioether N-14), 0.02 µM; in that of `CCC[C@@H]1NC(=O)[C@H](C)N(C)C(=O)[C@H](C(C)C)NC(=O)[C@H](Cc2ccc(-c3ccccc3)cc2)NC(=O)[C@H](CC(C)C)NC(=O)[C@H](Cc2c[nH]c3ccccc23)NC(=O)[C@H](CC(=O)O)NC(=O)[C@H](Cc2ccc(O)cc2)NC(=O)[C@H](Cc2ccccc2)NC(=O)CSC[C@@H](C(=O)NCC(N)=O)NC(=O)[C@H](CO)NC(=O)[C@H](C(C)C)NC(=O)[C@H](CC(C)C)NC(=O)[C@H](CC(N)=O)NC1=O` [Compound 1803] ({CH2CO}-FYDWL[Bip]V[NMeA][Nva]NLVSCG-NH2; thioether N-14), 0.2 µM. Then `Cc1cccc(C[C@@H]2NC(=O)[C@H](CC(=O)O)NC(=O)[C@H](Cc3ccc(OCC(=O)O)cc3)NC(=O)[C@H](Cc3ccncc3)NC(=O)CSC[C@@H](C(=O)NCC(N)=O)NC(=O)[C@H](CO)NC(=O)[C@H](C(C)C)NC(=O)[C@H](CC(C)C)NC(=O)[C@H](CC(N)=O)NC(=O)[C@@H](CC(C)C)NC(=O)[C@H](C)N(C)C(=O)[C@H](C(C)C)NC(=O)[C@H](Cc3ccc(-c4ccccc4)cc3)NC(=O)[C@H](CC(C)C)NC2=O)c1` [Compound 1557] ({CH2CO}-[4Pal]Y(Carboxymethyl)D[Phe(3-Me)]L[Bip]V[NMeA][dL]NLVSCG-NH2; thioether N-14), with 0.01 µM; and `CCC(C)[C@@H]1NC(=O)[C@H](Cc2ccc(-c3ccccc3)cc2)NC(=O)[C@H](CC(C)C)NC(=O)[C@H](Cc2c[nH]c3ccccc23)NC(=O)[C@H](CC(=O)O)NC(=O)[C@H](Cc2ccc(OCC(=O)O)cc2)NC(=O)[C@H](C(C)O)NC(=O)CSC[C@@H](C(=O)N[C@@H](CC(N)=O)C(=O)O)NC(=O)[C@H](C2CCCC2)NC(=O)[C@H](C(C)C)NC(=O)[C@H](CC(C)C)NC(=O)[C@H](CCN)NC(=O)[C@@H](CC(C)C)NC(=O)[C@H](C)N(C)C1=O` (stereo partly drawn) [Compound 2227] ({CH2CO}-[Thr(3ξ)]Y(Carboxymethyl)DWL[Bip][Ile(3ξ)][NMeA][dL][Dab]LV[Gly(cPent)]CN-OH; thioether N-14), with 0.81 µM; and `CC(=O)NCC[C@H](NC(=O)[C@@H]1CSCC(=O)N[C@@H](Cc2ccncc2)C(=O)N[C@@H](Cc2ccc(OCC(=O)O)cc2)C(=O)N[C@@H](CC(=O)O)C(=O)N[C@@H](Cc2cccc(C)c2)C(=O)N[C@@H](Cc2ccc(C(=O)O)cc2)C(=O)N[C@@H](Cc2ccc(-c3ccccc3)cc2)C(=O)N[C@@H](Cc2ccc(OCC(=O)O)cc2)C(=O)N(C)[C@@H](C)C(=O)N[C@H](CC(C)C)C(=O)N[C@@H](CCN)C(=O)N[C@@H](CC2CCCCC2)C(=O)N[C@@H](C(C)(C)O)C(=O)N[C@@H](Cc2cnc[nH]2)C(=O)N1)C(N)=O` [Compound 2162] ({CH2CO}-[4Pal]Y(Carboxymethyl)D[Phe(3-Me)][Phe(4-COOH)][Bip]Y(Carboxymethyl)[NMeA][dL][Dab][Cha][Val(3-OH)]HC[Dab](Ac)-NH2; thioether N-14), with 0.02 µM. With `CC(C)C[C@@H]1NC(=O)[C@H](CCCNC(=N)N)NC(=O)[C@@H](Cc2cccc(C(F)(F)F)c2)NC(=O)[C@H](C)N(C)C(=O)[C@H](CCCNC(=N)N)NC(=O)[C@H](Cc2ccc(-c3ccccc3)cc2)NC(=O)[C@H](C(C)C)NC(=O)[C@H](Cc2c[nH]c3ccccc23)NC(=O)[C@H](CC(=O)O)NC(=O)[C@H](Cc2ccc(O)cc2)NC(=O)[C@H](Cc2ccccc2)NC(=O)CSC[C@@H](C(=O)N[C@@H](C)C(N)=O)NC(=O)[C@H]([C@@H](C)O)NC(=O)[C@H](C(C)C)NC1=O` [Compound 1075] ({CH2CO}-FYDWV[Bip]R[NMeA][dPhe(3-CF3)]RLVTCA-NH2; thioether N-14), the IC50 is 0.55 µM. Then `Cc1cccc(C[C@@H]2NC(=O)[C@H](CC(=O)O)NC(=O)[C@H](Cc3ccc(O)cc3)NC(=O)[C@H](CC(N)=O)NC(=O)CSC[C@@H](C(=O)N[C@@H](CCN)C(N)=O)NC(=O)[C@H](CCC(=O)O)NC(=O)[C@H](C(C)(C)O)NC(=O)[C@H](CC3CCCCC3)NC(=O)[C@H](CCN)NC(=O)[C@@H](CC(C)C)NC(=O)[C@H](C)N(C)C(=O)[C@H](CCCNC(N)=O)NC(=O)[C@H](Cc3ccc(-c4ccccc4)cc3)NC(=O)[C@H](C(C)(C)O)NC2=O)c1` [Compound 1711] ({CH2CO}-NYD[Phe(3-Me)][Val(3-OH)][Bip][Cit][NMeA][dL][Dab][Cha][Val(3-OH)]EC[Dab]-NH2; thioether N-14), with 0.06 µM. Then `CCC(C)[C@@H]1NC(=O)[C@H](Cc2ccc(-c3ccccc3)cc2)NC(=O)[C@H](C(C)C)NC(=O)[C@H](Cc2c[nH]c3ccccc23)NC(=O)[C@H](CC(=O)O)NC(=O)[C@H](Cc2ccc(O)cc2)NC(=O)[C@H](Cc2cccs2)NC(=O)CSC[C@@H](C(=O)N2CCC[C@H]2C(N)=O)NC(=O)[C@H](C(C)O)NC(=O)[C@H](C(C)(C)O)NC(=O)[C@H](CC2CCCCC2)NC(=O)[C@H](CC(N)=O)NC(=O)[C@@H](CC(C)C)NC(=O)[C@H](C)N(C)C1=O` (stereo partly drawn) [Compound 2174] ({CH2CO}-[2Thi]YDWV[Bip][Ile(3ξ)][NMeA][dL]N[Cha][Val(3-OH)][Thr(3ξ)]CP-NH2; thioether N-14), with 0.31 µM; and `CC(C)C[C@@H]1NC(=O)[C@H](Cc2c[nH]c3ccccc23)NC(=O)[C@H](CC(=O)O)NC(=O)[C@H](Cc2ccc(O)cc2)NC(=O)[C@H](Cc2ccccc2)NC(=O)CSC[C@@H](C(=O)NCC(N)=O)NC(=O)[C@H]([C@@H](C)O)NC(=O)[C@H](C(C)C)NC(=O)[C@H](CC(C)C)NC(=O)[C@H](CCN)NC(=O)[C@@H](C)NC(=O)[C@H](C)N(C)C(=O)[C@H](C(C)C)NC(=O)[C@H](Cc2ccc(-c3ccccc3)cc2)NC1=O` [Compound 1477] ({CH2CO}-FYDWL[Bip]V[NMeA][dA][Dab]LVTCG-NH2; thioether N-14), with 0.02 µM.
